Test results as given in ChEMBL document CHEMBL1140165, “Rotationally constrained 2,4-diamino-5,6-disubstituted pyrimidines: a new class of histamine H4 receptor antagonists with improved druglikeness and in vivo efficacy in pain and inflammation models” (J Med Chem, 2008).
Calls of active or inactive are those of the source. No cut-off for these calls is given here.

Target: T1, Histamine H4 receptor (Rattus norvegicus, UniProt Q91ZY1)
Experiment: Antagonist activity at rat histamine H4 receptor expressed in HEK293 cells assessed as inhibition of histamine-induced intracellular calcium elevation by FLIPR assay
Type: functional, cell-based
Conditions: not given

T1 sequence (Q91ZY1 whole entry): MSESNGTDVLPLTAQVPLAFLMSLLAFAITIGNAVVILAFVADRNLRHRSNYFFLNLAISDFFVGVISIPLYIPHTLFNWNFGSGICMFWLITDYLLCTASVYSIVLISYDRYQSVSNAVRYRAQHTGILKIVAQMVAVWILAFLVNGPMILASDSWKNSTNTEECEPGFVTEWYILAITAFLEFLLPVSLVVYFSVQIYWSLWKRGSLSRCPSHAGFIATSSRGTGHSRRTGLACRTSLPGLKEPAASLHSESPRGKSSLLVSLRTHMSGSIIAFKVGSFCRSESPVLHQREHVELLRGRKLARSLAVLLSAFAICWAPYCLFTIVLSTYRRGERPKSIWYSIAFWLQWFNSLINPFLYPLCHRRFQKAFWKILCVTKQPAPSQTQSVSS

Row | SMILES | EC50
1 | Nc1nc2c(c(N3CCNCC3)n1)CCc1ccccc1-2 | 24 nM
2 | Nc1nc2c(c(N3CCNCC3)n1)CCCCC2c1ccccc1 (centres undefined) | 55 nM
3 | CN1CCN(c2nc(N)nc3c2CCc2ccccc2-3)CC1 | 15.5 nM

Target: Histamine H4 receptor (Rattus norvegicus) (UniProt Q91ZY1)
Experiment: Antagonist activity at rat histamine H4 receptor expressed in HEK293 cells assessed as inhibition of histamine-induced intracellular calcium elevation by FLIPR assay relative to histamine
Type: functional, cell-based
Conditions: not given

Chain of Histamine H4 receptor (Rattus norvegicus) (Q91ZY1 whole entry): as above

Row | SMILES | Efficacy
4 | Nc1nc2c(c(N3CCNCC3)n1)CCc1ccccc1-2 | 52%
5 | CN1CCN(c2nc(N)nc3c2CCc2ccccc2-3)CC1 | 76%

Target: T2, Histamine H4 receptor (Mus musculus, UniProt Q91ZY2)
T2 sequence (Q91ZY2 whole entry): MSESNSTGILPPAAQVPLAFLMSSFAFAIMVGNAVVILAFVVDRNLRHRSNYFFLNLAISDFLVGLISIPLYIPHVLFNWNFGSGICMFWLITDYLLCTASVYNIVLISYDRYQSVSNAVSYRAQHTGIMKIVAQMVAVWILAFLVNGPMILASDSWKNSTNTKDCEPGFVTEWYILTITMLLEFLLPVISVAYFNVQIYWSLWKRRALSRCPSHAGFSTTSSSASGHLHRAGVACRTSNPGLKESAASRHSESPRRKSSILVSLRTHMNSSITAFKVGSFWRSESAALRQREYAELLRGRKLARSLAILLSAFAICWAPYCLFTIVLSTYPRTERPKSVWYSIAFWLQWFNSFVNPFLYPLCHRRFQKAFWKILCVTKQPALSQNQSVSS
Experiment: Antagonist activity at mouse histamine H4 receptor expressed in HEK293 cells assessed as inhibition of histamine-induced intracellular calcium elevation by FLIPR assay
Type: functional, cell-based
Conditions: not given

Row | SMILES | EC50
6 | Nc1nc2c(c(N3CCNCC3)n1)CCCCC2c1ccccc1 (centres undefined) | 45.7 nM

Target: T3, Histamine H4 receptor (Homo sapiens, UniProt Q9H3N8)
Experiment: Displacement of [3H]histamine from human histamine H4 receptor expressed in HEK293 cells
Type: cell-based
Conditions: read-out: Ki

T3 sequence (Q9H3N8 whole entry): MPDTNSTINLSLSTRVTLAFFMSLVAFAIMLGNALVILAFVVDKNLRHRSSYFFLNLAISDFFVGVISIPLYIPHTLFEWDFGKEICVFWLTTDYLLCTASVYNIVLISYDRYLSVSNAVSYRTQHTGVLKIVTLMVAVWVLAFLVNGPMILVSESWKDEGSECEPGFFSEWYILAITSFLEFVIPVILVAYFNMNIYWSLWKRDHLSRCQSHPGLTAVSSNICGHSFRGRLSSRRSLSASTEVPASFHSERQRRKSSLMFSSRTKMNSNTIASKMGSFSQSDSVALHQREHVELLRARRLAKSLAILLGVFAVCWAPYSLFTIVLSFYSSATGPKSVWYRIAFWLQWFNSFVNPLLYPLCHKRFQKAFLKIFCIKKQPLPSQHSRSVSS

Row | SMILES | Ki
7 | Nc1nc2c(c(N3CCNCC3)n1)CCCCC2c1ccccc1 (centres undefined) | 39.8 nM

Same assay, conditions: read-out: pKi (converted)

Row | SMILES | Ki
8 | Nc1nc2c(c(N3CCNCC3)n1)CCc1ccccc1-2 | 52.5 nM
9 | CN1CCN(c2nc(N)nc3c2CCc2ccccc2-3)CC1 | 15.5 nM

Target: T1, Histamine H4 receptor
Experiment: Displacement of [3H]histamine from rat histamine H4 receptor expressed in HEK293 cells
Type: cell-based
Conditions: not given

Row | SMILES | Ki
10 | Nc1nc2c(c(N3CCNCC3)n1)CCc1ccccc1-2 | 9.12 nM
11 | Nc1nc2c(c(N3CCNCC3)n1)CCCCC2c1ccccc1 (centres undefined) | 4.47 nM
12 | CN1CCN(c2nc(N)nc3c2CCc2ccccc2-3)CC1 | 5.37 nM

Test system: BMMC
Experiment: Blockade of histamine-induced morphological changes in BALB/c mouse BMMC by flow cytometry
Type: functional, cell-based
Conditions: not given

Row | SMILES | Activity
13 | Nc1nc2c(c(N3CCNCC3)n1)CCCCC2c1ccccc1 (centres undefined) | Active

Test system: not listed separately
Experiment: Selectivity ratio of Ki for human histamine H4 receptor to Ki for histamine H1 receptor
Conditions: not given

Row | SMILES | Ratio Ki
14 | Nc1nc2c(c(N3CCNCC3)n1)CCCCC2c1ccccc1 (centres undefined) | > 160

Test system: not listed separately
Experiment: Selectivity ratio of Ki for human histamine H4 receptor to Ki for histamine H2 receptor
Conditions: not given

Row | SMILES | Ratio Ki
15 | Nc1nc2c(c(N3CCNCC3)n1)CCCCC2c1ccccc1 (centres undefined) | > 230

Species on record: Homo sapiens
Experiment: Selectivity ratio of Ki for human histamine H4 receptor to Ki for human histamine H3 receptor
Conditions: not given

Row | SMILES | Ratio Ki
16 | Nc1nc2c(c(N3CCNCC3)n1)CCCCC2c1ccccc1 (centres undefined) | 56

Test system: not listed separately
Experiment: Selectivity ratio of Ki for human histamine H4 receptor to Ki for 5HT1A receptor
Conditions: not given

Row | SMILES | Ratio Ki
17 | Nc1nc2c(c(N3CCNCC3)n1)CCCCC2c1ccccc1 (centres undefined) | 11

Test system: not listed separately
Experiment: Selectivity ratio of Ki for human histamine H4 receptor to Ki for 5HT1D receptor
Conditions: not given

Row | SMILES | Ratio Ki
18 | Nc1nc2c(c(N3CCNCC3)n1)CCCCC2c1ccccc1 (centres undefined) | 81

Test system: not listed separately
Experiment: Selectivity ratio of Ki for human histamine H4 receptor to Ki for 5HT2A receptor
Conditions: not given

Row | SMILES | Ratio Ki
19 | Nc1nc2c(c(N3CCNCC3)n1)CCCCC2c1ccccc1 (centres undefined) | 2.2

Test system: not listed separately
Experiment: Selectivity ratio of Ki for human histamine H4 receptor to Ki for dopamine D2 receptor
Conditions: not given

Row | SMILES | Ratio Ki
20 | Nc1nc2c(c(N3CCNCC3)n1)CCCCC2c1ccccc1 (centres undefined) | 480

Test system: not listed separately
Experiment: Selectivity ratio of Ki for human histamine H4 receptor to Ki for adrenergic alpha1 receptor
Conditions: not given

Row | SMILES | Ratio Ki
21 | Nc1nc2c(c(N3CCNCC3)n1)CCCCC2c1ccccc1 (centres undefined) | 125

Test system: Liver microsomes
Experiment: Metabolic stability in rat liver microsomes
Type: ADME, Microsome
Conditions: not given

Row | SMILES | Stability
22 | Nc1nc2c(c(N3CCNCC3)n1)CCc1ccccc1-2 | 104 pmol/min/mg
23 | Nc1nc2c(c(N3CCNCC3)n1)CCCCC2c1ccccc1 (centres undefined) | 108 pmol/min/mg
24 | CN1CCN(c2nc(N)nc3c2CCc2ccccc2-3)CC1 | 192 pmol/min/mg

Test system: Liver microsomes
Experiment: Metabolic stability in human liver microsomes
Type: ADME, Microsome
Conditions: not given

Row | SMILES | Stability
25 | Nc1nc2c(c(N3CCNCC3)n1)CCc1ccccc1-2 | 45.9 pmol/min/mg
26 | Nc1nc2c(c(N3CCNCC3)n1)CCCCC2c1ccccc1 (centres undefined) | 28.5 pmol/min/mg
27 | CN1CCN(c2nc(N)nc3c2CCc2ccccc2-3)CC1 | 102 pmol/min/mg

Test system: not listed separately
Experiment: Metabolic stability in mouse liver microsomes
Type: ADME, Microsome
Conditions: not given

Row | SMILES | Stability
28 | Nc1nc2c(c(N3CCNCC3)n1)CCc1ccccc1-2 | 18.4 pmol/min/mg
29 | Nc1nc2c(c(N3CCNCC3)n1)CCCCC2c1ccccc1 (centres undefined) | 10.9 pmol/min/mg
30 | CN1CCN(c2nc(N)nc3c2CCc2ccccc2-3)CC1 | 195 pmol/min/mg

Test system: not listed separately
Experiment: Protein binding in rat
Type: ADME, organism-based
Conditions: in vivo, read-out: PB (converted)

Row | SMILES | fraction unbound
31 | Nc1nc2c(c(N3CCNCC3)n1)CCc1ccccc1-2 | 0.73
32 | Nc1nc2c(c(N3CCNCC3)n1)CCCCC2c1ccccc1 (centres undefined) | 0.24
33 | CN1CCN(c2nc(N)nc3c2CCc2ccccc2-3)CC1 | 0.3

Test system: not listed separately
Experiment: Protein binding in human
Type: ADME, organism-based
Conditions: in vivo, read-out: PB (converted)

Row | SMILES | fraction unbound
34 | Nc1nc2c(c(N3CCNCC3)n1)CCc1ccccc1-2 | 0.59
35 | Nc1nc2c(c(N3CCNCC3)n1)CCCCC2c1ccccc1 (centres undefined) | 0.41
36 | CN1CCN(c2nc(N)nc3c2CCc2ccccc2-3)CC1 | 0.22

Target: Cytochrome P450 3A4 (Homo sapiens, UniProt P08684)
Experiment: Inhibition of CYP3A4 upto 10 uM
Type: ADME
Conditions: not given

Chain of Cytochrome P450 3A4 (P08684 whole entry): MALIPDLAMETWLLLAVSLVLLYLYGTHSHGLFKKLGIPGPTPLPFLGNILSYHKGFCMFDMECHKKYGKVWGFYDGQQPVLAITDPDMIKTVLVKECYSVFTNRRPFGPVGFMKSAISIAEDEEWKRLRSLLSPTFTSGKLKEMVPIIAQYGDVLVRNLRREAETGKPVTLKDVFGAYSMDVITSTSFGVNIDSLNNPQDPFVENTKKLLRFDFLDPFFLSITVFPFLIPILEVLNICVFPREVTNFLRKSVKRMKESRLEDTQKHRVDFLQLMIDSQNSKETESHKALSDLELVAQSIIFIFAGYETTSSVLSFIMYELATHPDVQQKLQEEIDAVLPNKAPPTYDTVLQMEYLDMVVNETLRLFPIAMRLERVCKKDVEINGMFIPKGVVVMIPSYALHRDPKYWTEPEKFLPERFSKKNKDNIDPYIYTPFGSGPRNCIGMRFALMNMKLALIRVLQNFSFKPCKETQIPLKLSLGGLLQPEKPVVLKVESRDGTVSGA

Row | SMILES | Activity
37 | Nc1nc2c(c(N3CCNCC3)n1)CCc1ccccc1-2 | Not Active
38 | Nc1nc2c(c(N3CCNCC3)n1)CCCCC2c1ccccc1 (centres undefined) | Not Active
39 | CN1CCN(c2nc(N)nc3c2CCc2ccccc2-3)CC1 | Not Active

Target: Cytochrome P450 2D6 (Homo sapiens, UniProt P10635)
Experiment: Inhibition of CYP2D6 upto 10 uM
Type: ADME
Conditions: not given

Chain of Cytochrome P450 2D6 (P10635 whole entry): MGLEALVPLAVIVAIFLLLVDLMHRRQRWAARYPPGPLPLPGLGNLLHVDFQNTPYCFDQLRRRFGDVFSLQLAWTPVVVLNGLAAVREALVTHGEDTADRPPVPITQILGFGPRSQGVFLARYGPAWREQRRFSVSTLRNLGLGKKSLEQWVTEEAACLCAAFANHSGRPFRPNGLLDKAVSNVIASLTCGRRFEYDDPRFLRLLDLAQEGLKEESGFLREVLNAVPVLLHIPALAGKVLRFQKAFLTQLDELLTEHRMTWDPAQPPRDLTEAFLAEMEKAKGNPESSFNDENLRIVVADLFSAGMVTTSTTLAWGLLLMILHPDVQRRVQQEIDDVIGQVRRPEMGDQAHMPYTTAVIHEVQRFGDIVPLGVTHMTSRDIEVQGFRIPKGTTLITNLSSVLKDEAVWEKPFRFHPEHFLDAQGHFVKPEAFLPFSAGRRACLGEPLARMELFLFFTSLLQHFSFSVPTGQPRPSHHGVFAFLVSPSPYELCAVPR

Row | SMILES | Activity
40 | Nc1nc2c(c(N3CCNCC3)n1)CCc1ccccc1-2 | Not Active
41 | Nc1nc2c(c(N3CCNCC3)n1)CCCCC2c1ccccc1 (centres undefined) | Not Active
42 | CN1CCN(c2nc(N)nc3c2CCc2ccccc2-3)CC1 | Not Active

Target: Cytochrome P450 2C9 (Homo sapiens, UniProt P11712)
Experiment: Inhibition of CYP2C9 upto 10 uM
Type: ADME
Conditions: not given

Chain of Cytochrome P450 2C9 (P11712 whole entry): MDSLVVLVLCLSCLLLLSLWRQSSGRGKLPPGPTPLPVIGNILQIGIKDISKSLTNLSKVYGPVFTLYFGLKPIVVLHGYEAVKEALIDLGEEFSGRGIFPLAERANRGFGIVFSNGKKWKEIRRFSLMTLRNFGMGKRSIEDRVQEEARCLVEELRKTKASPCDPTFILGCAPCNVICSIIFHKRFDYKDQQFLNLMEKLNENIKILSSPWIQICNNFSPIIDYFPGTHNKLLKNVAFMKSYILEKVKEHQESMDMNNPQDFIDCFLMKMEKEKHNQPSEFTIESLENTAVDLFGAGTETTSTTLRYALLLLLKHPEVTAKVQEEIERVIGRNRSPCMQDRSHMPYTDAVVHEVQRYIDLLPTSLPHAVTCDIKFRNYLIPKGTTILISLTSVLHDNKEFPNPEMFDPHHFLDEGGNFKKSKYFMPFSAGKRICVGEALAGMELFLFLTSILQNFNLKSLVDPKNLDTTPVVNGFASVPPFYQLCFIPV

Row | SMILES | Activity
43 | Nc1nc2c(c(N3CCNCC3)n1)CCc1ccccc1-2 | Not Active
44 | Nc1nc2c(c(N3CCNCC3)n1)CCCCC2c1ccccc1 (centres undefined) | Not Active
45 | CN1CCN(c2nc(N)nc3c2CCc2ccccc2-3)CC1 | Not Active

Test system: not listed separately
Experiment: Half life in rat at 10 mg/kg, iv
Type: ADME, organism-based
Set-up: dose 10 mg/kg, route intravenous
Conditions: in vivo

Row | SMILES | half-life
46 | Nc1nc2c(c(N3CCNCC3)n1)CCCCC2c1ccccc1 (centres undefined) | 3.2 h

Test system: not listed separately
Experiment: Blood clearance in rat at 10 mg/kg, iv
Type: ADME, organism-based
Set-up: dose 10 mg/kg, route intravenous
Conditions: whole blood

Row | SMILES | clearance
47 | Nc1nc2c(c(N3CCNCC3)n1)CCCCC2c1ccccc1 (centres undefined) | 80 mL/min/kg

Test system: not listed separately
Experiment: Terminal volume of distribution in rat at 10 mg/kg, iv
Type: ADME, organism-based
Set-up: dose 10 mg/kg, route intravenous
Conditions: in vivo, read-out: Vbeta

Row | SMILES | Vd
48 | Nc1nc2c(c(N3CCNCC3)n1)CCCCC2c1ccccc1 (centres undefined) | 22 L/kg

Test system: not listed separately
Experiment: Fractional bioavailability in rat at 10 mg/kg, iv and 10 mg/kg, po
Type: ADME, organism-based
Conditions: in vivo

Row | SMILES | bioavailability
49 | Nc1nc2c(c(N3CCNCC3)n1)CCCCC2c1ccccc1 (centres undefined) | 31%

Test system: Mus musculus
Experiment: Antiinflammatory activity against ip dosed BALB/c mouse assessed as inhibition of zymosan-induced peritonitis after 2 hrs pretreated 30 mins before zymosan challenge
Type: functional
Conditions: not given

Row | SMILES | ED50
50 | Nc1nc2c(c(N3CCNCC3)n1)CCCCC2c1ccccc1 (centres undefined) | 79 µmol/kg

Test system: Mus musculus
Experiment: Inhibition of clobenpropit-induced itching in ip dosed CD1/ICR mouse assessed as blockade of scratching in hind paw for 25 mins pretreated 30 mins before clobenpropit challenge
Type: functional
Conditions: not given

Row | SMILES | ED50
51 | Nc1nc2c(c(N3CCNCC3)n1)CCCCC2c1ccccc1 (centres undefined) | 10 µmol/kg

Target: T3, Histamine H4 receptor
Conditions: HEK293

Row | SMILES | pKb
52 | Nc1nc2c(c(N3CCNCC3)n1)CCc1ccccc1-2 | 7.58
53 | Nc1nc2c(c(N3CCNCC3)n1)CCCCC2c1ccccc1 (centres undefined) | 7.24
54 | CN1CCN(c2nc(N)nc3c2CCc2ccccc2-3)CC1 | 8.08
